These results are taken from patent US4956368A, “Metabolites and prodrug formulations of 8-[4-[4-(1,2-benzisothiazol-3-yl)-1-piperazinyl]butyl]-8-azaspiro[4.5]de cane-7,9-dione” (Bristol-Myers Company, priority 1989, dated 1990).

Like-named read-outs stand apart in the source and are kept apart here. A value given as a limit tells only on which side of the number the result lay.

The target in data set [1] is Dopamine/Spiperone/neuroleptic receptor site. Briefly: Receptor binding test RB1, [3H] Spiperone ligand, D(+)Butaclamol specific binding agent. An excerpt:
(§1) As indication of the psychotropic activity and specificity of a compound, state of the art in vitro central nervous system receptor binding (RB) methodology can be employed. […] Inhibition of radiolabeled ligand binding at such sites is considered a measure of the test compound's ability to affect corresponding central nervous system function in vivo.
(§2) Some of the more common binding tests employed are listed below in Table 1.

Data set [2] deals with T1, Serotonin Type 2 (5-HT2) (Rattus norvegicus, UniProt P14842).
T1 construct: from tissue; frontal cortex in the cited method
T1 sequence (P14842 whole entry): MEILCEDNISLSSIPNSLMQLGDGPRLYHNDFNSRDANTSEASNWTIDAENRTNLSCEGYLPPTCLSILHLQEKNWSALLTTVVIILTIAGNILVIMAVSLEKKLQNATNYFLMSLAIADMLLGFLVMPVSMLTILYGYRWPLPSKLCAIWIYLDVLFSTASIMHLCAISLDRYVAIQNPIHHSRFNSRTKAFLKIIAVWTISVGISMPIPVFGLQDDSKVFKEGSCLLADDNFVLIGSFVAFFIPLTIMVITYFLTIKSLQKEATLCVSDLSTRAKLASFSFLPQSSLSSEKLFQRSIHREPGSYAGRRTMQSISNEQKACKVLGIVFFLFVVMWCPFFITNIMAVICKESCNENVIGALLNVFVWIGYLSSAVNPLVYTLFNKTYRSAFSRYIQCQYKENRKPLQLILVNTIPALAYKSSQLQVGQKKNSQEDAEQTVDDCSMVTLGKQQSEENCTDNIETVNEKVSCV
Briefly: Receptor binding test RB3, [3H] Spiperone ligand, D-Lysergide specific binding agent.
Text: as §1, §2

A further data set has as its target Alpha-1. Nature of the data set: Receptor binding test RB2, [3H] WB-4104 ligand, Phentolamine specific binding agent.
Text: as §1, §2

Another data set has as its system trained fasted rats. Nature of the data set: Conditioned Avoidance Response (CAR), attenuation of avoidance response to electrical shock. It counts as in vivo. The conditions noted are these: Rattus norvegicus. An excerpt:
(§3) The following in vivo test systems (Table 2) are illustrative of the conventional testing used to classify and differentiate a psychotropic agent from a non-specific CNS depressant.

A further data set deals with dopaminergic activity. Briefly: Inhibition of Apomorphine-Induced (APO) Stereotypy, blockade of dopaminergic activity. It counts as in vivo, rats. The conditions noted are these: Rattus norvegicus, read-out: APO ED50. An excerpt: The following in vivo test systems (Table 2) are illustrative of the conventional testing used to classify and differentiate a psychotropic agent from a non-specific CNS depressant. |2. Inhibition of Apomorphine-Induced (APO) Stereotypy - | an assessment of blockade of dopaminergic activity in rats | as measured by attenuation of the behavioral syndrome | caused by the dopamine agonist, apomorphine. cf: Janssen, | et al, Arzneimittel.

The target in data set [3] is T2, Serotonin Type 1A (5-HT1A) (Bos taurus, UniProt F6Q2H9).
T2 construct: from tissue
T2 sequence (F6Q2H9 1-422): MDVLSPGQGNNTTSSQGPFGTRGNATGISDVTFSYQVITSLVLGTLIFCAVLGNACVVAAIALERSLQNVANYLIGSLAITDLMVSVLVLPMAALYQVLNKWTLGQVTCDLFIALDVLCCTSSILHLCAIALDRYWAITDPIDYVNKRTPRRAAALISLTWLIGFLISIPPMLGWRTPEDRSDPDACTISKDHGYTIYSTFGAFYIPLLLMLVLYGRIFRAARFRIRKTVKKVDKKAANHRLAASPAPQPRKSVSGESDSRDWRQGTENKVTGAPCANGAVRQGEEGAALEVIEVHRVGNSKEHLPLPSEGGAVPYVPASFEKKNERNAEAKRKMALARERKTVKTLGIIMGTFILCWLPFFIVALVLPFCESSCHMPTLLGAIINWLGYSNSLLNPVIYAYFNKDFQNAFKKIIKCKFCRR
Nature of the data set: Receptor binding test RB4, [3H] 8-OH-DPAT ligand, 8-OH-DPAT specific binding agent.
Text: as §1, §2

The subject of another data set is sigma receptor. The conditions noted are these: background statement; cited from earlier work.
Data set [4] addresses T1, Serotonin Type 2 (5-HT2). The conditions noted are these: background statement; cited from earlier work.
Data set [5] has as its system Serotonin Type 1A (5-HT1A). The conditions noted are these: background statement; cited from earlier work.
The next data set concerns dopamine receptor. The conditions noted are these: following chronic administration; background statement; cited from earlier work.
The test system of a further data set is dopamine D2 receptors. The conditions noted are these: background statement; cited from earlier work.
Data set [6] concerns alpha-adrenergic receptor. The conditions noted are these: background statement; cited from earlier work.
A further data set deals with psychotropic activity. Briefly: in vivo screens predictive of antipsychotic activity, overall (Table 7). The conditions noted are these: compared to tiospirone. Also on record: species or system rats.
Text: as §3
1. Conditioned Avoidance Response (CAR) - measure of a
drug's tranquilizing activity as determined by its'
attenuation of avoidance response to electrical shock in
trained fasted rats. cf: Albert, Pharmacologist, -4, 152 (1962);
2. Inhibition of Apomorphine-Induced (APO) Stereotypy -
an assessment of blockade of dopaminergic activity in rats
as measured by attenuation of the behavioral syndrome
caused by the dopamine agonist, apomorphine. cf: Janssen,
et al, Arzneimittel. Forsch., --17, 841 (1966).

Data set [7] deals with central nervous system receptor. Briefly: in vitro receptor binding (RB) tests, overall (Table 6).
Text: As indication of the psychotropic activity and specificity of a compound, state of the art in vitro central nervous system receptor binding (RB) methodology can be employed. Certain compounds (commonly referred to as ligands) have been identified which preferentially bind to specific high affinity sites in brain tissue dealing with psychotropic activity. Inhibition of radiolabeled ligand binding at such sites is considered a measure of the test compound's ability to affect corresponding central nervous system function in vivo.
as §2

Turning to `O=C1CC2(CCCC2)CC(=O)N1CCCCN1CCN(C2=NS(=O)(=O)c3ccccc32)CC1` [Reference # 1], the IC50 in data set [1] is over 1000 nM; on Serotonin Type 2 (5-HT2) [2], 25000 nM; at Alpha-1, 274 nM. Also, the ED50 in the data set on trained fasted rats (po) and in the data set with dopaminergic activity (po) was over 100 mg/kg in each case.

In the case of `O=C1CC2(CCC(O)C2)CC(=O)N1CCCCN1CCN(c2nsc3ccccc23)CC1` (centres unmarked) [Reference # 2, 2-Hydroxy-8-[4-[4-(1,2-benzisothiazol-3-yl)-1-piperazinyl]butyl]-8-azaspiro[4.5]decane-7,9-dione], the half-inhibitory concentration (IC50) worked out at 52.5 nM in data set [1], 2.05 nM at Serotonin Type 2 (5-HT2) [2] and 0.876 nM at Alpha-1. This compound also returned an ED50 with trained fasted rats (po) of over 100 mg/kg.

For `O=C1CC2(CCC(O)C2)CC(=O)N1CCCCN1CCN(c2n[s+]([O-])c3ccccc23)CC1` (centres unmarked) [Reference # 3], the IC50 was over 100000 nM in [1], 1480 nM on Serotonin Type 2 (5-HT2) [2], 1850 nM in data set [3] (read-out: RB4 IC50) and 372 nM on Alpha-1.

Turning to `O=C1CCC2(C1)CC(=O)N(CCCCN1CCN(c3nsc4ccccc34)CC1)C(=O)C2` [Reference # 5, 2-Oxo-8-[4-[4-(1,2-benzisothiazol-3-yl)-1-piperazinyl]butyl]-8-azaspiro[4.5]decane-7,9-dione], the figures for the IC50 (in [1]; at Serotonin Type 2 (5-HT2) [2]; at Alpha-1) were 68.3 nM, 2.92 nM and 1.3 nM, respectively. In addition, the results for the median effective dose (ED50) in the data set on trained fasted rats (sc) and in the data set on dopaminergic activity (sc) were 60.3 mg/kg and over 50 mg/kg, respectively.

As to `O=C1CC2(CCCC2)CC(=O)N1CCC(O)CN1CCN(c2nsc3ccccc23)CC1` (centres unmarked) [Reference # 7], the half-inhibitory concentration (IC50) in data set [1] worked out at 111 nM; on Serotonin Type 2 (5-HT2) [2], 10.2 nM; on Alpha-1, 8.3 nM. This compound also had an ED50 with trained fasted rats (po) of over 80 mg/kg.

Regarding `O=C1CC2(CCC(O)C2)CC(=O)N1CCC(O)CN1CCN(c2nsc3ccccc23)CC1` (centres unmarked) [Reference # 9], the values for the IC50 (in data set [1]; on Serotonin Type 2 (5-HT2) [2]; on Alpha-1) were 491 nM, 19.8 nM and 7.15 nM, respectively.

As to `O=C1CC2(CCCC2)C(O)C(=O)N1CCCCN1CCN(c2nsc3ccccc23)CC1` (centres unmarked) [Reference # 10, 8-[4-[4-(1,2-Benzisothiazol-3-yl)-1-piperazinyl]butyl]-6-hydroxy-8-azaspiro[-4.5]decane-7,9-dione], at Serotonin Type 2 (5-HT2) [2], the IC50 worked out at 1.1 nM. Also, the ED50 with trained fasted rats (po) is 8.4 mg/kg; in the data set with dopaminergic activity (po), 26 mg/kg.

For the compound `CCCCCCCCCC(=O)OC1CCC2(CC(=O)N(CCCCN3CCN(c4nsc5ccccc45)CC3)C(=O)C2)C1` (centres unmarked) [Reference # 12, 8-[4-[4-(1,2-Benzisothiazol-3-yl)-1-piperazinyl]butyl]-7,9-dioxo-8-azaspiro[4.5]decan-2-yl Decanoate], the concentration for half-maximal inhibition (IC50) is 153 nM in [1], 10.2 nM on Serotonin Type 2 (5-HT2) [2], 35.8 nM in data set [3] (read-out: RB4 IC50) and 7.22 nM on Alpha-1.

As to `c1ccc2c(N3CCNCC3)nsc2c1` [Reference # 14, 4-(1,2-benzisothiazol-3-yl)1H-piperazine], the IC50 in [1] was over 1000 nM; on Serotonin Type 2 (5-HT2) [2], 110 nM; in data set [3], 179 nM; at Alpha-1, 510 nM.

`O=C1CN(C2=NS(=O)(=O)c3ccccc32)CCN1` [Reference # 17, 4-(1,2-Benzisothiazol-1,1-dioxo-3-yl)-2-oxo-lH-piperazine]: the half-inhibitory concentration (IC50) was over 100000 nM at Serotonin Type 2 (5-HT2) [2], over 1000 nM in data set [3] (read-out: RB4 IC50) and 13100 nM on Alpha-1.

Take `CC(C)(C)OC(=O)N1CCN(C2=NS(=O)(=O)c3ccccc32)CC1` [Reference # 18, 1,1-Dimethylethyl 4-(1,2-Benzisothiazol-1,1-dioxo-3-yl)-1piperazinecarboxylate]: the values for the IC50 (in data set [1]; in data set [3] (read-out: RB4 IC50); at Alpha-1) were over 1000 nM, over 100000 nM and over 100000 nM, respectively.

`O=C1CC2(CCCC2)CC(=O)N1CCCCN1CCN(c2nsc3ccccc23)CC1` [Reference # i, 8-[4-[4-(1,2-benzisothiazol-3-yl)-1-piperazinyl]butyl]-8-azaspiro[4.5]decane-7,9-dione]: in the data set on sigma receptor, the “in vitro interactions at sigma receptor sites” value was “potent”. The “in vitro interactions at serotonin 5-HT2 receptors” value at Serotonin Type 2 (5-HT2) [4] is given as “potent”. For the same compound, the IC50 at Alpha-1 amounted to 47 nM. In addition, the ED50 was found to be 10.9 mg/kg in the data set on trained fasted rats (po) and 13.1 mg/kg with dopaminergic activity (po). In data set [5], the “in vitro interactions at serotonin 5-HT1A receptors” value is “potent”. The dopamine receptor supersensitivity entry in the data set on dopamine receptor is on record as “does not cause dopamine receptor supersensitivity”. For the same compound, in the data set with dopamine D2 receptors, the “in vitro affinity for dopamine D2 receptors” value is “appreciable”. In addition, in data set [6], the “in vitro interactions at alpha-adrenergic receptor sites” value is on record as “potent”.

As for `O=C1CC2(CCCC2)CC(=O)N1CCCCN1CCN(c2n[s+]([O-])c3ccccc23)CC1` (centres unmarked) [Reference # ii, 8-[4-[4-(1-oxo-l,2-benzisothiazol-3-yl) -1-piperazinyl]butyl]-8-azaspiro[4.5]decane-7,9-dione, reference compound], the IC50 worked out at 3490 nM in [1], 276 nM at Serotonin Type 2 (5-HT2) [2], 1120 nM in data set [3] (read-out: RB4 IC50) and 331 nM at Alpha-1. Further, the “potency in in vivo screens predictive of antipsychotic activity” value in the data set with psychotropic activity was “did not affect its potency”. Moreover, the “in vitro binding affinity compared to tiospirone” value in data set [7] is on record as “attenuation of in vitro binding affinity”. Further, the figures for the ED50 with trained fasted rats (po) and in the data set on dopaminergic activity (po) were 7.6 mg/kg and 9.6 mg/kg, respectively.

As a reminder, the IC50 is the concentration at which inhibition is half-maximal. One may read the ED50 as the dose that gives a 50% effect, or the effect in half of the subjects.
